ChEMBL document CHEMBL3632477 (2015)
Where a SMILES comes first, the peptide text is derived from it. Bridges are numbered along the chain shown (N, C = ends). [ ]: non-standard residue; d: D form. Bip(2'-Et-4'-OMe) = CCc1cc(OC)ccc1-c1ccc(C[C@H](N)C(=O)O)cc1; αMePhe(2,6-F2) = C[C@](N)(Cc1c(F)cccc1F)C(=O)O; Bip = N[C@@H](Cc1ccc(-c2ccccc2)cc1)C(=O)O; αMePhe(2-F) = C[C@](N)(Cc1ccccc1F)C(=O)O; hhPhe = N[C@@H](CCCc1ccccc1)C(=O)O; αMeF = C[C@](N)(Cc1ccccc1)C(=O)O; Pen = CC(C)(S)[C@H](N)C(=O)O; Aib = CC(C)(N)C(=O)O

Biological target: Glucagon-like peptide 1 receptor (Homo sapiens, UniProt P43220)
Test: Agonist activity at human GLP-1R expressed in CHO-K1 cells assessed as increase in cAMP level incubated for 30 mins
Format: functional, cell-based

Chain of Glucagon-like peptide 1 receptor (P43220 whole entry): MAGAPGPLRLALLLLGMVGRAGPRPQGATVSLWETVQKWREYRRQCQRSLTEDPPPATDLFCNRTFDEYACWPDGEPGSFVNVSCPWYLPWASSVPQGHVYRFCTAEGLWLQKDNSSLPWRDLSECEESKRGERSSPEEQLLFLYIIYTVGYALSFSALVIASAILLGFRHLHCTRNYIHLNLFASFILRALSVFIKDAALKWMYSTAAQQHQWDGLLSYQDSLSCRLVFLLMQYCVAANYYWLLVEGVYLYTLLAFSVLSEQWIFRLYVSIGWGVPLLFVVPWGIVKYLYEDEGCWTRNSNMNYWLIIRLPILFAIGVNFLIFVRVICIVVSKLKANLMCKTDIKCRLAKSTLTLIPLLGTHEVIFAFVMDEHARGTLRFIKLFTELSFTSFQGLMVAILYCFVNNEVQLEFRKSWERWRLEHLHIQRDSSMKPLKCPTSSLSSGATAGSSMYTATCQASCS

SMILES | EC50 [nM]
CCc1cc(OC)ccc1-c1ccc(C[C@@H]2NC(=O)[C@H](CC(=O)O)NC(=O)[C@H](CO)NC(=O)[C@H]([C@@H](C)O)NC(=O)[C@](C)(Cc3c(F)cccc3F)NC(=O)[C@H]([C@@H](C)O)NC(=O)CNC(=O)[C@H](CCC(=O)O)NC(=O)[C@@H]3CCCN3C(=O)[C@H](Cc3cnc[nH]3)NC(=O)[C@H](CO)NC(=O)[C@@H]3CSSC[C@H](NC(=O)[C@H](CCCc4ccccc4)NC2=O)C(=O)NCC(=O)N[C@@H](Cc2ccc(-c4ccccc4)cc2)C(=O)N[C@@H](C)C(=O)N[C@@H](C)C(=O)NCC(=O)NCC(=O)NCC(=O)N[C@@H](C)C(=O)N3)cc1 (cyclo(AAGGGACSHPEGT[αMePhe(2,6-F2)]TSD[Bip(2'-Et-4'-OMe)][hhPhe]CG[Bip]); disulfide 7-20) | 470
CCc1cc(OC)ccc1-c1ccc(C[C@@H]2NC(=O)[C@H](CC(=O)O)NC(=O)[C@H](CO)NC(=O)[C@H]([C@@H](C)O)NC(=O)[C@](C)(Cc3ccccc3F)NC(=O)[C@H]([C@@H](C)O)NC(=O)CNC(=O)[C@H](CCC(=O)O)NC(=O)[C@@H]3CCCN3C(=O)[C@H](Cc3cnc[nH]3)NC(=O)[C@H](CO)NC(=O)[C@@H]3CSSC[C@H](NC(=O)[C@H](CCCc4ccccc4)NC2=O)C(=O)NCC(=O)NCC(=O)N[C@@H](C)C(=O)N[C@@H](C)C(=O)NCC(=O)NCC(=O)NCC(=O)N[C@@H](C)C(=O)N3)cc1 (cyclo(AAGGGACSHPEGT[αMePhe(2-F)]TSD[Bip(2'-Et-4'-OMe)][hhPhe]CGG); disulfide 7-20) | 1000
CCc1cc(OC)ccc1-c1ccc(C[C@@H]2NC(=O)[C@H](CC(=O)O)NC(=O)[C@H](CO)NC(=O)[C@H]([C@@H](C)O)NC(=O)[C@](C)(Cc3c(F)cccc3F)NC(=O)[C@H]([C@@H](C)O)NC(=O)CNC(=O)[C@H](CCC(=O)O)NC(=O)C(C)(C)NC(=O)[C@H](Cc3cnc[nH]3)NC(=O)[C@H](CO)NC(=O)[C@@H]3CSSC[C@H](NC(=O)[C@H](CCCc4ccccc4)NC2=O)C(=O)NCC(=O)NCC(=O)N[C@@H](C)C(=O)N[C@@H](C)C(=O)NCC(=O)NCC(=O)NCC(=O)N[C@@H](C)C(=O)N3)cc1 (cyclo(AAGGGACSH[Aib]EGT[αMePhe(2,6-F2)]TSD[Bip(2'-Et-4'-OMe)][hhPhe]CGG); disulfide 7-20) | 1400
CCc1cc(OC)ccc1-c1ccc(C[C@@H]2NC(=O)[C@H](CC(=O)O)NC(=O)[C@H](CO)NC(=O)[C@H]([C@@H](C)O)NC(=O)[C@](C)(Cc3c(F)cccc3F)NC(=O)[C@H]([C@@H](C)O)NC(=O)CNC(=O)[C@H](CCC(=O)O)NC(=O)[C@@H]3CCCN3C(=O)[C@H](Cc3cnc[nH]3)NC(=O)[C@H](CO)NC(=O)[C@H](C(C)(C)S)NC(=O)[C@H](C)NC(=O)CNC(=O)CNC(=O)CNC(=O)[C@H](C)NC(=O)[C@H](C)NC(=O)CNC(=O)CNC(=O)[C@H](C(C)(C)S)NC(=O)[C@H](CCCc3ccccc3)NC2=O)cc1 (cyclo(AAGGGA[Pen]SHPEGT[αMePhe(2,6-F2)]TSD[Bip(2'-Et-4'-OMe)][hhPhe][Pen]GG)) | 2000
CCc1cc(OC)ccc1-c1ccc(C[C@@H]2NC(=O)[C@H](CC(=O)O)NC(=O)[C@H](CO)NC(=O)[C@H]([C@@H](C)O)NC(=O)[C@](C)(Cc3ccccc3)NC(=O)[C@H]([C@@H](C)O)NC(=O)CNC(=O)[C@H](CCC(=O)O)NC(=O)[C@@H]3CCCN3C(=O)[C@H](Cc3cnc[nH]3)NC(=O)[C@H](CO)NC(=O)[C@@H]3CSSC[C@H](NC(=O)[C@H](CCCc4ccccc4)NC2=O)C(=O)NCC(=O)NCC(=O)N[C@@H](CC(C)C)C(=O)N[C@@H](CC(C)C)C(=O)N[C@@H](CC(C)C)C(=O)NCC(=O)N[C@@H](CC(C)C)C(=O)N[C@@H](CC(C)C)C(=O)N3)cc1 (cyclo(CGGLLLGLLCSHPEGT[αMeF]TSD[Bip(2'-Et-4'-OMe)][hhPhe]); disulfide 1-10) | 2800
CCc1cc(OC)ccc1-c1ccc(C[C@@H]2NC(=O)[C@H](CC(=O)O)NC(=O)[C@H](CO)NC(=O)[C@H]([C@@H](C)O)NC(=O)[C@](C)(Cc3c(F)cccc3F)NC(=O)[C@H]([C@@H](C)O)NC(=O)CNC(=O)[C@H](CCC(=O)O)NC(=O)[C@@H]3CCCN3C(=O)[C@H](Cc3cnc[nH]3)NC(=O)[C@H](CO)NC(=O)[C@@H]3CSSC[C@H](NC(=O)[C@H](CCCc4ccccc4)NC2=O)C(=O)NCC(=O)NCC(=O)N[C@@H](C(C)C)C(=O)N[C@@H](C(C)C)C(=O)N[C@@H](C(C)C)C(=O)NCC(=O)N[C@@H](C(C)C)C(=O)N[C@@H](C(C)C)C(=O)N3)cc1 (cyclo(CGGVVVGVVCSHPEGT[αMePhe(2,6-F2)]TSD[Bip(2'-Et-4'-OMe)][hhPhe]); disulfide 1-10) | 1000
